This is an account of results in patent US10077261B2, “Imidazolin-5-one derivative useful as FASN inhibitors for the treatment of cancer” (Janssen Pharmaceutica NV, priority 2012, dated 2018).

In experiment [1] the test system is LNCaP-Vancouver prostate cells. Description: In vitro LNCaP Vancouver prostate cell proliferation assay in lipid reduced medium. It counts as cell-based. The following applies: read-out: pIC50 LNCaP_Vancouver prostate cell (converted).
Experiment [2] addresses Fatty Acid Synthase Keto-reductase Domain (FASN KR) (Homo sapiens, UniProt P49327). Description: Fatty Acid Synthase keto-reductase domain (FASN KR) inhibition, NADPH oxidation at 340 nm.
Description: After 20 minutes incubation at room temperature the plate was measured again (T2).
The decrease in absorbance was calculated as (Absorbance before incubation T1)−(Absorbance following incubation T2).
A plot of Controlmin versus test compound concentration was fitted to a 4-parameter logistic curve using a non-linear least squares regression method.
In experiment [3] the test system is PC-3M-Luc-C6 prostate cells. The experiment is described as follows: In vitro PC-3M-Luc-C6 prostate cell proliferation assay in lipid reduced medium. It counts as cell-based. The note with it: 96 h, read-out: pIC50 PC-3M-Luc-C6 prostate cell (converted).
For experiment [4], the system named is A2780 ovarian cells. Description: A2780 ovarian cell proliferation assay in lipid reduced medium, with palmitate (MTT). In kind it is cell-based. The note with it: Homo sapiens, A2780, 96 h; read-out: pIC50 A2780 Ovarian Cell, With Palmitate (converted). A digest of the protocol:
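Seeded cells were switched next day to lipid-reduced serum, exposed to compound and 25 μM palmitate complexed with fatty-acid-free BSA, and incubated 96 h. Proliferation was then determined by MTT absorbance at 544 nm, with a best-fit curve of signal against concentration.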

In experiment [5] the target is T1, hFASN enzyme (full length) (Homo sapiens, UniProt P49327).
T1 construct: 10 μL hFASN enzyme (full length, 300 ng, purified in house); made in house
Description: Fatty Acid Synthase (FASN) inhibition scintillation proximity assay. It counts as biochemical. The following applies: for inhibition at 10 µM: read-out: Human FASN % inhibition @ 10 μM, 10 μM test compound; for IC50: read-out: Human FASN pIC50 (converted). A digest of the protocol:
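Compounds at 0.01–30 μM were mixed with 300 ng purified full-length enzyme in 100 mM KH2PO4 pH 7.5, 1 mM DTT. Substrates ³H-acetyl-CoA and malonyl-CoA were then converted, and bead addition stopped the reaction. Signal was normalised to low and high plate controls and fitted by 4-parameter nonlinear regression.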

For experiment [6], the system named is A2780 ovarian cells. Description: A2780 ovarian cell proliferation assay in lipid reduced medium, without palmitate (MTT). It counts as cell-based. The note with it: Homo sapiens, A2780, 96 h; read-out: pIC50 A2780 Ovarian Cell, Without Palmitate (converted).

Chain of Fatty Acid Synthase Keto-reductase Domain (FASN KR) (P49327 whole entry, the tested form may be a part): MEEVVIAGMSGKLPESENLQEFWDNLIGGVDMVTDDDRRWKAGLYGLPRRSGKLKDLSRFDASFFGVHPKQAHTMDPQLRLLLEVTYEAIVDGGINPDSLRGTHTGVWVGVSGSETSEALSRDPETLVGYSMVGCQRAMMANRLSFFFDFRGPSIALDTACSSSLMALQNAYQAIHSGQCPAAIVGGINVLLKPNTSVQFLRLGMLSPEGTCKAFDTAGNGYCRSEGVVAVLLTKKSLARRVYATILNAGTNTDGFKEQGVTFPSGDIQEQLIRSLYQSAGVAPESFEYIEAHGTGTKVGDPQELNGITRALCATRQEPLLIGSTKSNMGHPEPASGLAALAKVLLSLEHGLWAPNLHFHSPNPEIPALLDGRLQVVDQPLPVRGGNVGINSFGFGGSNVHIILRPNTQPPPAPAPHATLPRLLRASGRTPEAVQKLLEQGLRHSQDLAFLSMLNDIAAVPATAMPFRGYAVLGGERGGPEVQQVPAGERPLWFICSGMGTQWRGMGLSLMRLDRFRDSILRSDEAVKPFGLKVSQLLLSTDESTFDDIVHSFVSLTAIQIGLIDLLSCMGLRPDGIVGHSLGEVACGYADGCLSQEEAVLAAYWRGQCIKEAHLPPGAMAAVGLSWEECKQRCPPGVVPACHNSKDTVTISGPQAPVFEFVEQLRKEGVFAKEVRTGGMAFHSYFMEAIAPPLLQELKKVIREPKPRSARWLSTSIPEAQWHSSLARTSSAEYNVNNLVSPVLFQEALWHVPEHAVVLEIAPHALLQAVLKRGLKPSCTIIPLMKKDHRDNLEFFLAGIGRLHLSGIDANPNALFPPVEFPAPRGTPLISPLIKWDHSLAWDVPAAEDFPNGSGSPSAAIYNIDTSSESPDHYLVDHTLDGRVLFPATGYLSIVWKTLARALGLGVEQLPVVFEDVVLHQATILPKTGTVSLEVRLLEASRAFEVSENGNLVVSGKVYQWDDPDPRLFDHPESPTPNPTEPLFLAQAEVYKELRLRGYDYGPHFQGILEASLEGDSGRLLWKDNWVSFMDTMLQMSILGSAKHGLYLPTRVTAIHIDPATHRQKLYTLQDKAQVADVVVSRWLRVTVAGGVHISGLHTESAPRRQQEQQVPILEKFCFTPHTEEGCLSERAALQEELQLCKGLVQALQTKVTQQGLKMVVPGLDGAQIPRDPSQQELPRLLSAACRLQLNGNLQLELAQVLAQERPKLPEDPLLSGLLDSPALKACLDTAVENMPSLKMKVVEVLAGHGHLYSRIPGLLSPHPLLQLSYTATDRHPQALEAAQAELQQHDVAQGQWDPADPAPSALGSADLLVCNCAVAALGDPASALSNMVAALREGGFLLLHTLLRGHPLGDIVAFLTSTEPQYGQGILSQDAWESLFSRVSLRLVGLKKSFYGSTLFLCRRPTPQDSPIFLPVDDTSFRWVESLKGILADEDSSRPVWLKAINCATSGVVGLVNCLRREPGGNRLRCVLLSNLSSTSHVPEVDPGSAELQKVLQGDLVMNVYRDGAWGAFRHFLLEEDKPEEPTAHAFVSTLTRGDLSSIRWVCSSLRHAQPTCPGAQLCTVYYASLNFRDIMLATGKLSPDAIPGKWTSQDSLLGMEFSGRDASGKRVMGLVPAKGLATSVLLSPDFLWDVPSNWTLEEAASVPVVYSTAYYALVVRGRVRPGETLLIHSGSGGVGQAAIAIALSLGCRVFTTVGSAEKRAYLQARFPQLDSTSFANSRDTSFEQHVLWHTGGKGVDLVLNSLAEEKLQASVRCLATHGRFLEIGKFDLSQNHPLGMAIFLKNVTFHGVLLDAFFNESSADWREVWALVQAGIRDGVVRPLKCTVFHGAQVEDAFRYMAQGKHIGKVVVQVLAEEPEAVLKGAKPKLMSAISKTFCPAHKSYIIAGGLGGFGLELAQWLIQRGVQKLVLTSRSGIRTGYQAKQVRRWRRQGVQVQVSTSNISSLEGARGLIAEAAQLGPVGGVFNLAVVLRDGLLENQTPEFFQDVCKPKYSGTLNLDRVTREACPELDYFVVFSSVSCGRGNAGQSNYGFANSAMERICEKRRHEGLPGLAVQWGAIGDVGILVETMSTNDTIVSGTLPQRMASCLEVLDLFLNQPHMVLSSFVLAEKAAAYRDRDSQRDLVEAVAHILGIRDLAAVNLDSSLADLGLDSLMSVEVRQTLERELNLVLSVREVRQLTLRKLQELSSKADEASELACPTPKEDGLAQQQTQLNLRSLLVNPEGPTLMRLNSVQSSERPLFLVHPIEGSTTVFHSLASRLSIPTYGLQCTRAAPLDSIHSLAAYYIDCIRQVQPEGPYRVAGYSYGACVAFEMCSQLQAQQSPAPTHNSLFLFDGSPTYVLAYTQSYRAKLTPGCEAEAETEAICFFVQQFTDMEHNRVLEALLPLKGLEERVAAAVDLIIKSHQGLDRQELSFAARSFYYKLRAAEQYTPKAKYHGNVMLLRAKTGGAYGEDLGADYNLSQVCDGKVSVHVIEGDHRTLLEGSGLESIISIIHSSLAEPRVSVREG
T1 sequence (P49327 whole entry): as the sequence (P49327 whole entry, the tested form may be a part) above

Regarding `O=C(C1CC1)N1CC(CN2C(=O)C3(CC3)N=C2c2ccc(-c3ccc4cccc(F)c4c3)cc2F)C1` [compound 350, 6-((1-(cyclopropanecarbonyl)azetidin-3-yl)methyl)-5-(2-fluoro-4-(8-fluoronaphthalen-2-yl)phenyl)-4,6-diazaspiro[2.4]hept-4-en-7-one], the IC50 in experiment [1] was 0.0813 µM; in experiment [2], 0.055 µM; in experiment [3] it was 0.0224 µM; with A2780 ovarian cells [4], > 10 µM; in experiment [5] it was 0.0151 µM; with A2780 ovarian cells [6], ~0.0282 µM. The inhibition at 10 µM in experiment [5] was 99%.

Regarding `COc1ccc2cc(-c3ccc(C4=NC5(CC5)C(=O)N4CC4CN(C(=O)C5CC5)C4)c(F)c3)ccc2c1` [compound 351, 6-((1-(cyclopropanecarbonyl)azetidin-3-yl)methyl)-5-(2-fluoro-4-(6-methoxynaphthalen-2-yl)phenyl)-4,6-diazaspiro[2.4]hept-4-en-7-one], the IC50 in experiment [1] was 0.0575 µM; in experiment [2], 0.0617 µM; in experiment [3], 0.0138 µM; in the experiment on A2780 ovarian cells [4] it was 8.51 µM; in experiment [5] it was 0.0741 µM; with A2780 ovarian cells [6], 0.0282 µM. Further, the inhibition at 10 µM in experiment [5] amounted to 95%.

Take `Cc1cc2cc(-c3ccc(C4=NC5(CC5)C(=O)N4CC4CN(C(=O)C5(C)CC5)C4)c(F)c3)ccc2s1` [compound 352, 5-(2-fluoro-4-(2-methylbenzo[b]thiophen-5-yl)phenyl)-6-((1-(1-methylcyclopropanecarbonyl)azetidin-3-yl)methyl)-4,6-diazaspiro[2.4]hept-4-en-7-one]: the IC50 is 0.562 µM in experiment [1]; 0.0933 µM in experiment [2]; 0.162 µM in experiment [3]; 3.02 µM in the experiment with A2780 ovarian cells [4]; 0.0741 µM in experiment [5]; ~0.123 µM in the experiment on A2780 ovarian cells [6]. For the same compound, the inhibition at 10 µM in experiment [5] stood at 94%.

For the compound `Cc1cc2cc(-c3ccc(C4=NC5(CC5)C(=O)N4CC4CN(C(=O)C5CC5)C4)c(F)c3)ccc2o1` [compound 353, 6-((1-(cyclopropanecarbonyl)azetidin-3-yl)methyl)-5-(2-fluoro-4-(2-methylbenzofuran-5-yl)phenyl)-4,6-diazaspiro[2.4]hept-4-en-7-one], the IC50 is 1.15 µM in experiment [1]; 0.107 µM in experiment [2]; 0.437 µM in experiment [3]; 6.03 µM with A2780 ovarian cells [4]; 0.055 µM in experiment [5]; 0.245 µM in the experiment on A2780 ovarian cells [6]. Moreover, in experiment [5], the inhibition at 10 µM was 101%.

On to `Cc1cc2cc(-c3ccc(C4=NC5(CC5)C(=O)N4C[C@@H]4CCN(C(=O)C5(O)CC5)C4)c(F)c3)ccc2s1` [compound 354, (R)-5-(2-fluoro-4-(2-methylbenzo[b]thiophen-5-yl)phenyl)-6-((1-(1-hydroxycyclopropanecarbonyl)pyrrolidin-3-yl)methyl)-4,6-diazaspiro[2.4]hept-4-en-7-one], for which the IC50 in experiment [1] was 0.245 µM; in experiment [2], 0.112 µM; in experiment [3], 0.0355 µM; in the experiment on A2780 ovarian cells [4], > 10 µM; in experiment [5], 0.0501 µM; in the experiment on A2780 ovarian cells [6], 0.0309 µM. Further, the inhibition at 10 µM in experiment [5] was found to be 100%.

As for `Cc1cc2cc(-c3ccc(C4=NC5(CC5)C(=O)N4C[C@@H]4CCN(C(=O)C5(O)CC5)C4)c(F)c3)ccc2o1` [compound 355, (R)-5-(2-fluoro-4-(2-methylbenzofuran-5-yl)phenyl)-6-((1-(1-hydroxycyclopropanecarbonyl)pyrrolidin-3-yl)methyl)-4,6-diazaspiro[2.4]hept-4-en-7-one], the IC50 in experiment [1] was 0.575 µM; in experiment [2], 0.0427 µM; in experiment [3] it was 0.0589 µM; in the experiment with A2780 ovarian cells [4], > 10 µM; in experiment [5], 0.0302 µM; in the experiment with A2780 ovarian cells [6] it was 0.0302 µM. Further, in experiment [5], the inhibition at 10 µM was found to be 96%.

In the case of `Cc1nc2cc(-c3ccc(C4=NC5(CC5)C(=O)N4CC4CN(C(=O)C5CC5)C4)c(F)c3)ccc2s1` [compound 356, 6-((1-(cyclopropanecarbonyl)azetidin-3-yl)methyl)-5-(2-fluoro-4-(2-methylbenzo[d]thiazol-5-yl)phenyl)-4,6-diazaspiro[2.4]hept-4-en-7-one], the IC50 in experiment [1] was 1.48 µM; in experiment [2] it was 0.479 µM; in experiment [3], ~0.324 µM; in the experiment on A2780 ovarian cells [4], > 10 µM; in experiment [5], 0.102 µM; with A2780 ovarian cells [6] it was ~0.162 µM. Also, the inhibition at 10 µM in experiment [5] turned out to be 99%.

On to `Cn1ncc2cc(-c3ccc(C4=NC5(CC5)C(=O)N4CC4CN(C(=O)C5(C)CC5)C4)c(F)c3)ccc21` [compound 357, 5-(2-fluoro-4-(1-methyl-1H-indaozl-5-yl)phenyl)-6-((1-(1-methylcyclopropanecarbonyl)azetidin-3-yl)methyl)-4,6-diazaspiro[2.4]hept-4-en-7-one], for which the IC50 was 0.372 µM in experiment [1]; 0.0631 µM in experiment [2]; 0.0251 µM in experiment [3]; > 10 µM in the experiment with A2780 ovarian cells [4]; 0.0398 µM in experiment [5]; 0.0224 µM in the experiment with A2780 ovarian cells [6]. In addition, the inhibition at 10 µM in experiment [5] was found to be 97%.

As for `Cn1cc(-c2ccc(-c3ccc(C4=NC5(CC5)C(=O)N4CC4CN(C(=O)C5(C)CC5)C4)c(F)c3)cc2)cn1` [compound 358, 5-(3-fluoro-4′-(1-methyl-1H-pyrazol-4-yl)-[1,1′-biphenyl]-4-yl)-6-((1-(1-methylcyclopropanecarbonyl)azetidin-3-yl)methyl)-4,6-diazaspiro[2.4]hept-4-en-7-one], the IC50 is 0.0776 µM in experiment [1]; 0.0513 µM in experiment [2]; 0.0148 µM in experiment [3]; > 10 µM with A2780 ovarian cells [4]; 0.0309 µM in experiment [5]; 0.00316 µM with A2780 ovarian cells [6]. Further, the inhibition at 10 µM in experiment [5] was found to be 100%.

`CC1(C(=O)N2CC(CN3C(=O)C4(CC4)N=C3c3ccc(-c4ccc5cc(F)ccc5c4)cc3F)C2)CC1` [compound 359, 5-(2-fluoro-4-(6-fluoronaphthalen-2-yl)phenyl)-6-((1-(1-methylcyclopropanecarbonyl)azetidin-3-yl)methyl)-4,6-diazaspiro[2.4]hept-4-en-7-one]: the IC50 is ~0.0794 µM in experiment [1]; 0.0417 µM in experiment [2]; 0.00832 µM in experiment [3]; > 6.17 µM in the experiment on A2780 ovarian cells [4]; 0.0398 µM in experiment [5]; 0.00813 µM with A2780 ovarian cells [6]. In addition, the inhibition at 10 µM in experiment [5] turned out to be 95%.

On to `Cn1ncc2cc(-c3ccc(C4=NC5(CC5)C(=O)N4C[C@@H]4CCN(C(=O)C5(C)CC5)C4)c(F)c3)ccc21` [compound 361, (R)-5-(2-fluoro-4-(1-methyl-1H-indazol-5-yl)phenyl)-6-((1-(1-methylcyclopropanecarbonyl)pyrrolidin-3-yl)methyl)-4,6-diazaspiro[2.4]hept-4-en-7-one], for which the IC50 was ~0.0129 µM in experiment [1]; 0.0457 µM in experiment [2]; 0.00324 µM in experiment [3]; > 10 µM in the experiment on A2780 ovarian cells [4]; 0.0398 µM in experiment [5]; ~0.00363 µM in the experiment on A2780 ovarian cells [6]. For the same compound, the inhibition at 10 µM in experiment [5] was found to be 103%.

As to `Cn1nccc1-c1ccc(-c2ccc(C3=NC4(CC4)C(=O)N3C[C@@H]3CCN(C(=O)C4(C)CC4)C3)c(F)c2)cc1` [compound 362], the IC50 was ~0.295 µM in experiment [1]; 0.126 µM in experiment [2]; ~0.0562 µM in experiment [3]; > 10 µM with A2780 ovarian cells [4]; 0.0776 µM in experiment [5]; ~0.0427 µM in the experiment on A2780 ovarian cells [6]. Further, in experiment [5], the inhibition at 10 µM worked out at 96%.

As to `O=C(N1CC(CN2C(=O)C3(CC3)N=C2c2ccc(-c3ccc4cc(F)ccc4c3)cc2F)C1)C1(O)CC1` [compound 365, 5-(2-fluoro-4-(6-fluoronaphthalen-2-yl)phenyl)-6-((1-(1-hydroxycyclopropanecarbonyl)azetidin-3-yl)methyl)-4,6-diazaspiro[2.4]hept-4-en-7-one], the IC50 is 0.0562 µM in experiment [1]; 0.0537 µM in experiment [2]; 0.00759 µM in experiment [3]; ~10 µM in the experiment with A2780 ovarian cells [4]; 0.0234 µM in experiment [5]; 0.00646 µM in the experiment on A2780 ovarian cells [6]. Moreover, in experiment [5], the inhibition at 10 µM was 97%.

For the compound `O=C(C1CC1)N1CC(CN2C(=O)C3(CC3)N=C2c2ccc(-c3ccc4ccccc4c3)cc2F)C1` [compound 368, 6-((1-(1-cyclopropanecarbonyl)azetidin-3-yl)methyl)-5-(2-fluoro-4-(naphthalen-2-yl)phenyl)-4,6-diazaspiro[2.4]hept-4-en-7-one], the IC50 in experiment [1] was 0.214 µM; in experiment [2] it was 0.0589 µM; in experiment [3], 0.0288 µM; with A2780 ovarian cells [4], 4.47 µM; in experiment [5], 0.0282 µM; in the experiment with A2780 ovarian cells [6], 0.0214 µM. The inhibition at 10 µM in experiment [5] was determined as 90%.

`O=C(C1CCO1)N1CC(CN2C(=O)C3(CC3)N=C2c2ccc(-c3ccc4cc(F)ccc4c3)cc2F)C1` (stereo not drawn) [compound 369, 5-(2-fluoro-4-(6-fluoronaphthalen-2-yl)phenyl)-6-((1-(oxetan-2-carbonyl)azetidin-3-yl)methyl)-4,6-diazaspiro[2.4]hept-4-en-7-one]: the IC50 is 0.0457 µM in experiment [1]; 0.0372 µM in experiment [2]; 0.01 µM in experiment [3]; 2.09 µM in the experiment with A2780 ovarian cells [4]; 0.0263 µM in experiment [5]; 0.00427 µM in the experiment on A2780 ovarian cells [6]. Moreover, the inhibition at 10 µM in experiment [5] stood at 102%.
